Measurements published in ChEMBL document CHEMBL3046642, “17-Oximino-5-androsten-3-yl esters: synthesis, antiproliferative activity, acute toxicity, and effect on serum androgen level” (Med Chem Res, 2011).
Calls of active or inactive are those of the source. The rule behind the calls is not given here.

Legend:
[1] = Cytotoxicity against Mus musculus Balb/c (mouse) macrophages after 24 hr by MTT assay; assay type: cell-based, Macrophage; conditions: read-out: LC50
DU-145 [2] = experiment: Cytotoxicity against Homo sapiens (human) DU145 cells after 48 hr by MTT assay; assay type: functional, cell-based
Rattus norvegicus = experiment: Inhibition of 5alpha-reductase in Rattus norvegicus Sprague-Dawley (rat) assessed as increase in serum testosterone at 40 mg/kg, ip after 6 hr by ELISA; assay type: functional, organism-based; set-up: dose 40 mg/kg
DU-145 [3] = experiment: Growth inhibition of Homo sapiens (human) DU145 cells at 5 ug/ml after 48 hr by MTT assay; assay type: functional; conditions: for inhibition of growth at 5 µg/mL: DU-145, 48 h, read-out: GI
DU-145 [4] = experiment: Growth inhibition of Homo sapiens (human) DU145 cells at 2 ug/ml after 48 hr by MTT assay; assay type: functional; conditions: for inhibition of growth at 2 µg/mL: DU-145, 48 h, read-out: GI
DU-145 [5] = experiment: Growth inhibition of Homo sapiens (human) DU145 cells at 0.01 ug/ml after 48 hr by MTT assay; assay type: functional; conditions: for inhibition of growth at 0.01 µg/mL: DU-145, 48 h, read-out: GI
DU-145 [6] = experiment: Growth inhibition of Homo sapiens (human) DU145 cells at 0.5 ug/ml after 48 hr by MTT assay; assay type: functional; conditions: for inhibition of growth at 0.5 µg/mL: DU-145, 48 h, read-out: GI
DU-145 [7] = experiment: Growth inhibition of Homo sapiens (human) DU145 cells at 1 ug/ml after 48 hr by MTT assay; assay type: functional; conditions: for inhibition of growth at 1 µg/mL: DU-145, 48 h, read-out: GI
[8] = Homo sapiens, DU-145, 48 h, read-out: IC50

SMILES	CC50 at 24 h [1] [µM]	IC50 (DU-145 [2]; [8]) [µM]	inhibition (Rattus norvegicus)	inhibition of growth at 5 µg/mL (DU-145 [3]) [%]	inhibition of growth at 2 µg/mL (DU-145 [4]) [%]	inhibition of growth at 0.01 µg/mL (DU-145 [5]) [%]	growth inhibition (GI) (DU-145 [4])	growth inhibition (GI) (DU-145 [5])	growth inhibition (GI) (DU-145 [6])	growth inhibition (GI) (DU-145 [7])	growth inhibition (GI) (DU-145 [3])	IC50 (DU-145 [2]; du-145)	inhibition of growth at 0.5 µg/mL (DU-145 [6]) [%]	inhibition of growth at 1 µg/mL (DU-145 [7]) [%]
C[C@]12CC[C@H](OC(=O)c3ccccc3)CC1=CC[C@@H]1[C@@H]2CC[C@]2(C)/C(=N/O)CC[C@@H]12	89.4	3.8	Active	91.1										
C[C@]12CC[C@H](OC(=O)c3ccc([N+](=O)[O-])cc3)CC1=CC[C@@H]1[C@@H]2CC[C@]2(C)/C(=N/O)CC[C@@H]12	19.5	3.07	Active	81.5										
C[C@]12CC[C@H](OC(=O)COc3ccccc3)CC1=CC[C@@H]1[C@@H]2CC[C@]2(C)/C(=N/O)CC[C@@H]12	89	6.3	Active											
CC(C)(C)NC(=O)[C@H]1CC[C@H]2[C@@H]3CC[C@H]4NC(=O)C=C[C@]4(C)[C@H]3CC[C@]12C [FINASTERIDE]	28.2		Active	78.5	36	5								
C[C@]12CC[C@H](OC(=O)Cc3ccccc3)CC1=CC[C@@H]1[C@@H]2CC[C@]2(C)/C(=N/O)CC[C@@H]12	11.8	6.5	Active				inactive	inactive	inactive	inactive	inactive			
Cc1ccc(C(=O)O[C@H]2CC[C@@]3(C)C(=CC[C@@H]4[C@@H]3CC[C@]3(C)/C(=N/O)CC[C@@H]43)C2)cc1	22	2.3	Active	92.9										
C[C@]12CC[C@H](O)CC1=CC[C@@H]1[C@@H]2CC[C@]2(C)/C(=N/O)CC[C@@H]12			Active				inactive	inactive	inactive	inactive	inactive	Not Active		
C[C@]12CC[C@H](OC(=O)c3ccc(N)cc3)CC1=CC[C@@H]1[C@@H]2CC[C@]2(C)/C(=N/O)CC[C@@H]12	29.4	3.7	Active	91										
COc1ccc(C(=O)O[C@H]2CC[C@@]3(C)C(=CC[C@@H]4[C@@H]3CC[C@]3(C)/C(=N/O)CC[C@@H]43)C2)cc1	14	5.4	inactive	69.5	65.6	30.7							51.4	59.2
C[C@]12CC[C@H](OC(=O)CCl)CC1=CC[C@@H]1[C@@H]2CC[C@]2(C)/C(=N/O)CC[C@@H]12	28	4.8	Active	59.2	56	53							55	56
C[C@]12CC[C@H](OC(=O)c3ccc(Cl)cc3)CC1=CC[C@@H]1[C@@H]2CC[C@]2(C)/C(=N/O)CC[C@@H]12	24	3.4	Active	84.5										
C[C@]12CC[C@H](OC(=O)c3ccc(O)cc3)CC1=CC[C@@H]1[C@@H]2CC[C@]2(C)/C(=N/O)CC[C@@H]12	22	2.9	inactive	91.5										
